Reference: US20090247559A1 (Exelixis, Inc., priority 2007, published 2009)

Experiments:
[1] = biological target: PIM (PIM-1, PIM-2, and/or PIM-3); experiment: PIM-1, PIM-2 and PIM-3 inhibition, biochemical chemiluminescence assays (Kinase Glo, IC50 determination); details: Table 1 activity class; PIM refers to PIM-1, PIM-2, and/or PIM-3; read-out: PIM IC50 (Activity B)
[2] = biological target: CK2 (Homo sapiens, UniProt P68400); experiment: CK2 inhibition, biochemical chemiluminescence holoenzyme assay (Kinase Glo, IC50 determination); details: Table 1 activity class; symbol given only if active; read-out: CK2 IC50 (Activity C)
How it was run: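 Holoenzyme CK2 assay; compounds pre-incubated with substrate and enzyme, then reacted 150 min at 24-27° C. Remaining ATP measured as luminescence with Kinase Glo, and IC50 derived from the signal.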

Sequence of CK2 (P68400 whole entry): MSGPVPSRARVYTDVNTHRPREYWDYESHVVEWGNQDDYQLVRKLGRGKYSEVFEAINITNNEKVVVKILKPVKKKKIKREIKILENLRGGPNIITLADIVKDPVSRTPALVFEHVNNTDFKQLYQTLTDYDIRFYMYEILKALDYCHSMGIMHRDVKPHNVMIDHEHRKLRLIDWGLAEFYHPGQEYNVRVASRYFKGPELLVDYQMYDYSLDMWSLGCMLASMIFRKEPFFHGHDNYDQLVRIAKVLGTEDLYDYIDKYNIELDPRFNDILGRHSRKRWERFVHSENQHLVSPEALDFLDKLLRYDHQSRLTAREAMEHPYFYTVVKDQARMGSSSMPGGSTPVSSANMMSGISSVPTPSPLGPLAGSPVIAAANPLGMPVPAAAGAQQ
Sequence of CK2 (P67870 whole entry partner): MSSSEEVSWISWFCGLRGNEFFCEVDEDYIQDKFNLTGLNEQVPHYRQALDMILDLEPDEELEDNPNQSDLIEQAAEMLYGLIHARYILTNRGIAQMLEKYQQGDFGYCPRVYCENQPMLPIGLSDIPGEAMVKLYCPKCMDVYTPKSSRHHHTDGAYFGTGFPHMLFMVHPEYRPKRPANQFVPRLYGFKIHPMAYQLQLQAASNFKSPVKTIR

SMILES | IC50 [1] | IC50 [2]
O=c1[nH]c(CN2CC[C@H](O)C2)nc2c1oc1ccc(NCc3ccccc3)cc12 [Compound 443, 2-{[(3S)-3-hydroxypyrrolidin-1-yl]methyl}-8-[(phenylmethyl)amino][1]benzofuro[3,2-d]pyrimidin-4(3H)-one] | < 10 µM | < 10 µM
CC(O)CN(Cc1nc2c(oc3ccc(Br)cc32)c(=O)[nH]1)CC(C)O (stereo not shown) [Compound 403, 2-{[bis(2-hydroxypropyl)amino]methyl}-8-bromo[1]benzofuro[3,2-d]pyrimidin-4(3H)-one] | < 10 µM | < 10 µM
Nc1cccc(-c2nc3c(oc4ccc(Br)cc43)c(=O)[nH]2)c1 [Compound 355, 2-(3-Aminophenyl)-8-bromo[1]benzofuro[3,2-d]pyrimidin-4(3H)-one] | < 10 µM | < 10 µM
O=C(Nc1ccc(-c2nc3c(oc4ccc(Br)cc43)c(=O)[nH]2)cc1)c1ccncc1 [Compound 360, N-[4-(8-bromo-4-oxo-3,4-dihydro[1]benzofuro[3,2-d]pyrimidin-2-yl)phenyl]pyridine-4-carboxamide] | < 10 µM | < 10 µM
O=C(Nc1ccc(Cl)c(-c2nc3c(oc4ccc(Br)cc43)c(=O)[nH]2)c1)C1CCOC1 (stereo not shown) [Compound 361, N-[3-(8-bromo-4-oxo-3,4-dihydro[1]benzofuro[3,2-d]pyrimidin-2-yl)-4-chlorophenyl]tetrahydrofuran-3-carboxamide] | < 10 µM | < 10 µM
O=c1[nH]c(COCC2CCNC2)nc2c1oc1ccc(Br)cc12 (stereo not shown) [Compound 288, 8-bromo-2-{[(pyrrolidin-3-ylmethyl)oxy]methyl}[1]benzofuro[3,2-d]pyrimidin-4(3H)-one] | < 10 µM | < 10 µM
O=c1[nH]c(CN2CCCC(CO)C2)nc2c1oc1ccc(Br)cc12 (stereo not shown) [Compound 306, 8-bromo-2-{[3-(hydroxymethyl)piperidin-1-yl]methyl}[1]benzofuro[3,2-d]pyrimidin-4(3H)-one] | < 10 µM | < 10 µM
CCc1ccccc1-c1nc2c(oc3ccc(Br)cc32)c(=O)[nH]1 [Compound 77, 8-bromo-2-(2-ethylphenyl)[1]benzofuro[3,2-d]pyrimidin-4(3H)-one] | < 10 µM | < 10 µM
COCCC(=O)N1CCC(c2nc3c(oc4ccc(Br)cc43)c(=O)[nH]2)CC1 [Compound 209, 8-bromo-2-{1-[3-(methyloxy)propanoyl]piperidin-4-yl}[1]benzofuro[3,2-d]pyrimidin-4(3H)-one] | < 10 µM | < 10 µM
CN(C)CC(=O)N1CCC(c2nc3c(oc4ccc(Br)cc43)c(=O)[nH]2)CC1 [Compound 210, 8-bromo-2-[1-(N,N-dimethylglycyl)piperidin-4-yl][1]benzofuro[3,2-d]pyrimidin-4(3H)-one] | < 10 µM | < 10 µM
COc1cc(Br)c(-c2nc3c(oc4ccc(Br)cc43)c(=O)[nH]2)cc1OC [Compound 66, 8-bromo-2-[2-bromo-4,5-bis(methyloxy)phenyl][1]benzofuro[3,2-d]pyrimidin-4(3H)-one] | < 10 µM | < 10 µM
O=c1[nH]c(CNCc2ccccn2)nc2c1oc1ccc(Br)cc12 [Compound 254, 8-bromo-2-{[(pyridin-2-ylmethyl)amino]methyl}[1]benzofuro[3,2-d]pyrimidin-4(3H)-one] | < 10 µM | < 10 µM
O=c1[nH]c(CN2CC[C@H](O)C2)nc2c1oc1ccc(NCCc3cccc(C(F)(F)F)c3)cc12 [Compound 473, 2-{[(3S)-3-hydroxypyrrolidin-1-yl]methyl}-8-({2-[3-(trifluoromethyl)phenyl]ethyl}amino)[1]benzofuro[3,2-d]pyrimidin-4(3H)-one] | < 10 µM | < 10 µM
O=c1[nH]c(-c2cc(OC3CCNCC3)no2)nc2c1oc1ccc(Br)cc12 [Compound 299, 8-Bromo-2-[3-(piperidin-4-yloxy)isoxazol-5-yl][1]benzofuro[3,2-d]pyrimidin-4(3H)-one] | < 10 µM | < 10 µM
CCN(CC)CC(=O)N1CCN(c2nc3c(oc4ccc(Br)cc43)c(=O)[nH]2)CC1 [Compound 245, 8-bromo-2-[4-(N,N-diethylglycyl)piperazin-1-yl][1]benzofuro[3,2-d]pyrimidin-4(3H)-one] | < 10 µM | < 10 µM
O=c1[nH]c(CN2CC[C@H](O)C2)nc2c1oc1ccc(CCCO)cc12 [Compound 455, 8-(3-hydroxypropyl)-2-{[(3S)-3-hydroxypyrrolidin-1-yl]methyl}[1]benzofuro[3,2-d]pyrimidin-4(3H)-one] | < 10 µM | < 10 µM
O=c1[nH]c(CN2CC[C@H](O)C2)nc2c1oc1ccc(NCc3ccccc3F)cc12 [Compound 462] | < 10 µM | < 10 µM
O=c1[nH]c(NCCO)nc2c1oc1ccc(Br)cc12 [Compound 309, 8-Bromo-2-[(2-hydroxyethyl)amino][1]benzofuro[3,2-d]pyrimidin-4(3H)-one] | < 10 µM | < 10 µM

Now from value to molecule:

IC50 [1] | IC50 [2] | SMILES
< 10 µM | < 10 µM | COc1ccccc1CNc1ccc2oc3c(=O)[nH]c(CN4CC[C@H](O)C4)nc3c2c1 [Compound 466, 2-{[(3S)-3-hydroxypyrrolidin-1-yl]methyl}-8-({[2-(methyloxy)phenyl]methyl}amino)[1]benzofuro[3,2-d]pyrimidin-4(3H)-one]
< 10 µM | < 10 µM | O=c1[nH]c(CC2CCNCC2)nc2c1oc1ccc(Br)cc12 [Compound 122, 8-bromo-2-(piperidin-4-ylmethyl)[1]benzofuro[3,2-d]pyrimidin-4(3H)-one]
< 10 µM | < 10 µM | O=C(NCc1ccncc1)C1CCN(Cc2nc3c(oc4ccc(Br)cc43)c(=O)[nH]2)C1 (stereo not shown) [Compound 325, 1-[(8-bromo-4-oxo-3,4-dihydro[1]benzofuro[3,2-d]pyrimidin-2-yl)methyl]-N-(pyridin-4-ylmethyl)pyrrolidine-3-carboxamide]
< 10 µM | < 10 µM | Cc1cc(C(=O)Nc2ccc(-c3nc4c(oc5ccc(Br)cc54)c(=O)[nH]3)c(Cl)c2)cc(Cl)n1 [Compound 274, N-[4-(8-bromo-4-oxo-3,4-dihydro[1]benzofuro[3,2-d]pyrimidin-2-yl)-3-chlorophenyl]-2-chloro-6-methylpyridine-4-carboxamide]
< 10 µM | < 10 µM | O=c1[nH]c(-c2ccccc2F)nc2c1oc1ccc(Br)cc12 [Compound 58, 8-Bromo-2-(2-fluorophenyl)[1]benzofuro[3,2-d]pyrimidin-4(3H)-one]
< 10 µM | < 10 µM | COc1cc2oc3c(=O)[nH]c(CN4CC[C@H](O)C4)nc3c2cc1Br [Compound 436, 8-bromo-2-{[(3S)-3-hydroxypyrrolidin-1-yl]methyl}-7-(methyloxy)[1]benzofuro[3,2-d]pyrimidin-4(3H)-one]
< 10 µM | < 10 µM | CN(C)c1ccccc1CNCc1nc2c(oc3ccc(Br)cc32)c(=O)[nH]1 [Compound 10, 8-bromo-2-[({[2-(dimethylamino)phenyl]methyl}amino)methyl][1]benzofuro[3,2-d]pyrimidin-4(3H)-one]
< 10 µM | < 10 µM | CC(C)(CN1CCCC1)NCc1nc2c(oc3ccc(Br)cc32)c(=O)[nH]1 [Compound 190, 8-bromo-2-{[(1,1-dimethyl-2-pyrrolidin-1-ylethyl)amino]methyl}[1]benzofuro[3,2-d]pyrimidin-4(3H)-one]
< 10 µM | < 10 µM | O=C(O)Cc1nc2c(oc3ccc(Br)cc32)c(=O)[nH]1 [Compound 310, (8-bromo-4-oxo-3,4-dihydro[1]benzofuro[3,2-d]pyrimidin-2-yl)acetic acid]
< 10 µM | < 10 µM | O=C(Nc1ccncc1)Nc1ccc(-c2nc3c(oc4ccc(Br)cc43)c(=O)[nH]2)c(Cl)c1 [Compound 415, 1-[4-(8-bromo-4-oxo-3,4-dihydro[1]benzofuro[3,2-d]pyrimidin-2-yl)-3-chlorophenyl]-3-pyridin-4-ylurea]
< 10 µM | < 10 µM | CN1CCN(c2ccc(NCc3nc4c(oc5ccc(Br)cc54)c(=O)[nH]3)cc2)CC1 [Compound 75, 8-bromo-2-({[4-(4-methylpiperazin-1-yl)phenyl]amino}methyl)[1]benzofuro[3,2-d]pyrimidin-4(3H)-one]
< 10 µM | < 10 µM | O=c1[nH]c(-c2ccccn2)nc2c1oc1ccc(Br)cc12 [Compound 57, 8-Bromo-2-pyridin-2-yl[1]benzofuro[3,2-d]pyrimidin-4(3H)-one]
< 10 µM | < 10 µM | O=c1[nH]c(-c2c(F)cccc2F)nc2c1oc1ccc(Br)cc12 [Compound 70, 8-bromo-2-(2,6-difluorophenyl)[1]benzofuro[3,2-d]pyrimidin-4(3H)-one]
< 10 µM | < 10 µM | CN(C)CCCC(=O)N1CCC(c2nc3c(oc4ccc(Br)cc43)c(=O)[nH]2)CC1 [Compound 207, 8-bromo-2-{1-[4-(dimethylamino)butanoyl]piperidin-4-yl}[1]benzofuro[3,2-d]pyrimidin-4(3H)-one]
< 10 µM | < 10 µM | CN1CCN(c2cccc(CNCc3nc4c(oc5ccc(Br)cc54)c(=O)[nH]3)c2)CC1 [Compound 14, 8-bromo-2-[({[3-(4-methylpiperazin-1-yl)phenyl]methyl}amino)-methyl][1]benzofuro[3,2-d]pyrimidin-4(3H)-one]
< 10 µM | < 10 µM | CN(C)c1cccc(CNCc2nc3c(oc4ccc(Br)cc43)c(=O)[nH]2)c1 [Compound 21, 8-bromo-2-[({[3-(dimethylamino)phenyl]methyl}amino)methyl][1]benzofuro[3,2-d]pyrimidin-4(3H)-one]
< 10 µM | < 10 µM | O=C(Nc1ccc(-c2nc3c(oc4ccc(Br)cc43)c(=O)[nH]2)c(Cl)c1)c1ccc(Br)cn1 [Compound 336, 5-bromo-N-[4-(8-bromo-4-oxo-3,4-dihydro[1]benzofuro[3,2-d]pyrimidin-2-yl)-3-chlorophenyl]pyridine-2-carboxamide]
